Assay [1] relates to Wnt activity in DLD1-Wnt-Luc cells. The experiment in a line: Wnt-Luciferase Reporter Assay. A general note: In a reporter assay the amount or activity of a reporter protein is the signal.
Assay [2] has as its target TNKS1 (Homo sapiens, UniProt O95271). The experiment in a line: TNKS1/PARP Biochemical Assay (TNKS1).
Where [3] appears, read: read-out: Wnt IC50, DLD1-Wnt-Luc cells.

pIC50: −log10 of the molar value. Where two headings read alike, the source gives them in different places. A value given as a limit tells only on which side of the number the result lay.

Results on 49 compounds are retold here after patent publication US9193689B2, “3-aryl-5-substituted-isoquinolin-1-one compounds and their therapeutic use” (INSTITUTE OF CANCER RESEARCH: ROYAL CANCER HOSPITAL (THE), priority 2012, dated 2015).

The pIC50 is the negative decadic logarithm of the IC50, by convention in mol/L.

For the compound `CN1CCN(c2ccc(-c3cc4c(Cl)cccc4c(=O)[nH]3)cn2)CC1` [IQ-002], the pIC50 was 6.75 in assay [1] (read-out: Wnt IC50) and 7.41 in assay [2].

On to `O=c1[nH]c(-c2cnc(N3CCNCC3)c(F)c2)cc2c(Cl)cccc12` [IQ-024], for which the figures for the pIC50 in assay [1] (setting [3]) and in assay [2] were more than 5.30 and more than 6.30, respectively.

For the compound `Cc1cccc2c(=O)[nH]c(-c3cnc(N4CCN(C)CC4)nc3)cc12` [IQ-025, 5-Methyl-3-[2-(4-methyl-piperazin-1-yl)-pyrimidin-5-yl]-2H-isoquinolin-1-one], the negative-log IC50 (pIC50) in assay [1] (read-out: Wnt IC50) is 7.21; in assay [2] it was 7.77.

For the compound `CN(C)Cc1ccc(-c2cc3c(F)cccc3c(=O)[nH]2)cc1` [IQ-032], the pIC50 in assay [1] (setting [3]) was more than 5.30.

As for `CN(C)Cc1ccc(-c2cc3c(Br)cccc3c(=O)[nH]2)cc1` [IQ-033], the pIC50 in assay [1] (setting [3]) is more than 5.30; in assay [2] it was more than 7.30.

With `CN1CCN(Cc2ccc(-c3cc4c(C5CC5)cccc4c(=O)[nH]3)cc2)CC1` [IQ-046], the pIC50 was more than 5.30 in assay [1] (setting [3]) and more than 6.30 in assay [2].

Consider `O=c1[nH]c(-c2ccc(CN3CCNCC3)cc2)cc2c(F)cccc12` [IQ-070], for which the negative logarithm of the IC50 (pIC50) in assay [1] (setting [3]) was more than 5.30; in assay [2], more than 7.30.

Turning to `Cc1cc(F)cc2c(=O)[nH]c(-c3ccc(CN4CCN(C)CC4)cc3)cc12` [IQ-080], the results for the negative-log IC50 (pIC50) in assay [1] (read-out: Wnt IC50) and in assay [2] were 7.38 and 7.54, respectively.

In the case of `CCc1cccc2c(=O)[nH]c(-c3ccc(CN4CCNCC4)cc3)cc12` [IQ-081], the pIC50 in assay [1] (setting [3]) is more than 5.30; in assay [2], more than 7.30.

`Cc1cccc2c(=O)[nH]c(-c3ccc(C(=O)N(C)CC4CCNCC4)cc3)cc12` [IQ-093, N-Methyl-4-(5-methyl-1-oxo-1,2-dihydro-isoquinolin-3-yl)-N-piperidin-4-ylmethyl-benzamide]: the values for the negative logarithm of the IC50 (pIC50) in assay [1] (setting [3]) and in assay [2] were more than 5.30 and more than 7.70, respectively.

As to `CN(CC1CCNCC1)C(=O)c1ccc(-c2cc3c(Cl)cccc3c(=O)[nH]2)cc1` [IQ-094], the negative logarithm of the IC50 (pIC50) was more than 5.30 in assay [1] (setting [3]) and more than 7.30 in assay [2].

On to `CN(C)C1CCN(C(=O)c2ccc(-c3cc4c(Cl)cccc4c(=O)[nH]3)cc2)CC1` [IQ-103], for which the pIC50 in assay [1] (setting [3]) was more than 5.30; in assay [2] it was more than 6.30.

For the compound `O=c1[nH]c(-c2ccc(S(=O)(=O)N3CCNCC3)cc2)cc2c(Cl)cccc12` [IQ-124], the negative-log IC50 (pIC50) in assay [1] (setting [3]) was more than 5.30; in assay [2], more than 7.30.

In the case of `CN(C)CCOc1ccc(-c2cc3c(Cl)cccc3c(=O)[nH]2)cc1` [IQ-128], the pIC50 in assay [1] (setting [3]) was more than 5.30; in assay [2], more than 6.30.

For `CN(C)CCOc1ccc(-c2cc3c(Br)cccc3c(=O)[nH]2)cc1` [IQ-132], the pIC50 in assay [1] (setting [3]) is more than 5.30; in assay [2], more than 6.30.

For `O=c1[nH]c(-c2ccc(OCCN3CCCC3)cc2)cc2c(Cl)cccc12` [IQ-135], the pIC50 is more than 5.30 in assay [1] (setting [3]) and more than 6.30 in assay [2].

As to `O=c1[nH]c(-c2ccc(CN3CCNCC3)cc2)cc2c(Br)cccc12` [IQ-150], the pIC50 in assay [1] (setting [3]) was more than 5.30; in assay [2] it was more than 6.30.

In the case of `CCc1cccc2c(=O)[nH]c(-c3ccc(CN4CCN(C(=O)OC(C)(C)C)CC4)cc3)cc12` [IQ-151, 4-[4-(5-Ethyl-1-oxo-1,2-dihydro-isoquinolin-3-yl)-benzyl]-piperazine-1-carboxylic acid tert-butyl ester], the pIC50 in assay [1] (setting [3]) is more than 5.30.

Consider `Cc1cccc2c(=O)[nH]c(-c3cnc(N4CCN(C(=O)C5CC5)CC4)nc3)cc12` [IQ-157, 3-[2-(4-Cyclopropanecarbonyl-piperazin-1-yl)-pyrimidin-5-yl]-5-methyl-2H-isoquinolin-1-one], for which the figures for the negative-log IC50 (pIC50) in assay [1] (read-out: Wnt IC50) and in assay [2] were 7.39 and 7.29, respectively.

As to `Cc1cccc2c(=O)[nH]c(-c3ccc(CN4CCC5(CCNC5)C4)nc3)cc12` (centres unmarked) [IQ-160], the pIC50 in assay [1] (setting [3]) was more than 5.30; in assay [2] it was more than 7.30.

Regarding `Cc1cccc2c(=O)[nH]c(-c3ccc(C(=O)N4CCOCC4)cc3F)cc12` [IQ-163], the figures for the pIC50 in assay [1] (setting [3]) and in assay [2] were more than 5.30 and more than 6.30, respectively.

Take `Cc1cccc2c(=O)[nH]c(-c3ccc(C(=O)N4CCN(C)CC4)cc3F)cc12` [IQ-164]: the negative logarithm of the IC50 (pIC50) in assay [1] (setting [3]) is more than 5.30; in assay [2] it was more than 6.30.

In the case of `Cc1cccc2c(=O)[nH]c(-c3ccc(C(=O)N4CCN(CC5CC5)CC4)cc3F)cc12` [IQ-165], the negative-log IC50 (pIC50) in assay [1] (setting [3]) is more than 5.30; in assay [2], more than 6.30.

`Cc1cccc2c(=O)[nH]c(-c3ccc(C(=O)N(CCO)CCO)cc3)cc12` [IQ-191, N,N-Bis-(2-hydroxy-ethyl)-4-(5-methyl-1-oxo-1,2-dihydro-isoquinolin-3-yl)-benzamide]: the figures for the negative logarithm of the IC50 (pIC50) in assay [1] (setting [3]) and in assay [2] were more than 5.30 and more than 7.70, respectively.

With `Cc1cc(F)cc2c(=O)[nH]c(-c3ccc(C(C)C(=O)N4CC(O)C4)cc3)cc12` (centres unmarked) [IQ-216], the pIC50 was more than 5.30 in assay [1] (setting [3]) and more than 7.30 in assay [2].

For `Cc1cccc2c(=O)[nH]c(-c3ccc(C(C)(C)C(=O)N4CC(O)C4)cc3)cc12` [IQ-217], the pIC50 in assay [1] (setting [3]) is more than 5.30; in assay [2] it was more than 7.30.

On to `Cc1cccc2c(=O)[nH]c(-c3ccc(C(=O)N4CCN(C)CC4)nc3)cc12` [IQ-220], for which the pIC50 is 6.56 in assay [1] (read-out: Wnt IC50) and 7.59 in assay [2].

For the compound `Cc1ccc(F)c2c(=O)[nH]c(-c3ccc(C(=O)N4CCN(C)CC4)nc3)cc12` [IQ-221], the pIC50 was more than 5.30 in assay [1] (setting [3]) and more than 6.30 in assay [2].

As for `Cc1cc(F)cc2c(=O)[nH]c(-c3ccc(C(=O)N4CCN(C)CC4)nc3)cc12` [IQ-222], the negative logarithm of the IC50 (pIC50) in assay [1] (read-out: Wnt IC50) is 6.76; in assay [2] it was 7.80.

As for `Cc1cccc2c(=O)[nH]c(-c3ccc(C(=O)N4CCN(CC5CC5)CC4)cn3)cc12` [IQ-223, 3-[5-(4-Cyclopropylmethyl-piperazine-1-carbonyl)-pyridin-2-yl]-5-methyl-2H-isoquinolin-1-one], the negative-log IC50 (pIC50) in assay [1] (read-out: Wnt IC50) was 5.87; in assay [1] (setting [3]), more than 5.30; in assay [2], 7.12.

`Cc1cccc2c(=O)[nH]c(-c3cnc(C(=O)N4CCN(C)CC4)nc3)cc12` [IQ-224]: the pIC50 in assay [1] (setting [3]) was more than 5.30; in assay [2] it was more than 7.30.

Turning to `Cc1ccc(F)c2c(=O)[nH]c(-c3cnc(C(=O)N4CCN(C)CC4)nc3)cc12` [IQ-225], the values for the pIC50 in assay [1] (setting [3]) and in assay [2] were more than 5.30 and more than 6.30, respectively.

`CN1CCN(C(=O)c2ccc(-c3cc4c(F)ccc(F)c4c(=O)[nH]3)cc2)CC1` [IQ-226] had a negative logarithm of the IC50 (pIC50) in assay [2] of more than 7.30.

In assay [2], `CN1CCN(C(=O)c2ccc(-c3cc4c(F)cc(F)cc4c(=O)[nH]3)cc2)CC1` [IQ-227] gave a negative-log IC50 (pIC50) of more than 7.70.

For the compound `O=C(c1ccc(-c2cc3c(F)cc(F)cc3c(=O)[nH]2)cc1)N1CCN(CCO)CC1` [IQ-228, 5,7-Difluoro-3-{4-[4-(2-hydroxy-ethyl)-piperazine-1-carbonyl]-phenyl}-2H-isoquinolin-1-one], the negative-log IC50 (pIC50) in assay [2] is more than 7.30.

The compound `O=C(c1ncc(-c2cc3c(F)ccc(F)c3c(=O)[nH]2)cn1)N1CCN(CC2CC2)CC1` [IQ-229] gave a pIC50 in assay [2] of more than 6.30.

Turning to `C#Cc1cccc2c(=O)[nH]c(-c3ccc(CN4CCNCC4)cc3)cc12` [IQ-230, 5-Ethynyl-3-(4-piperazin-1-ylmethylphenyl)-2H-isoquinolin-1-one], the negative logarithm of the IC50 (pIC50) in assay [1] (setting [3]) was more than 5.30; in assay [2] it was more than 6.30.

In assay [2], `CN1CCN(Cc2ccc(-c3cc4c(C#CCO)cccc4c(=O)[nH]3)cc2)CC1` [IQ-231] had a pIC50 of more than 7.30.

Turning to `CN(C)CCOc1ccc(-c2cc3c(C#CCO)cccc3c(=O)[nH]2)cc1` [IQ-232], the figures for the negative logarithm of the IC50 (pIC50) in assay [1] (setting [3]) and in assay [2] were more than 5.30 and more than 6.30, respectively.

Take `COCC#Cc1cccc2c(=O)[nH]c(-c3ccc(OCCN(C)C)cc3)cc12` [IQ-234]: the negative logarithm of the IC50 (pIC50) in assay [2] was more than 6.30.

For the compound `CN(C)CCOc1ccc(-c2cc3c(C#CCCO)cccc3c(=O)[nH]2)cc1` [IQ-236, 3-[4-(2-Dimethylaminoethoxy)phenyl]-5-(4-hydroxybut-1-ynyl)-2H-isoquinolin-1-one], in assay [2], the negative-log IC50 (pIC50) is more than 6.30.

As to `CN1CCN(c2ncc(-c3cc4ccccc4c(=O)[nH]3)cn2)CC1` [REF-1, reference compound], the values for the pIC50 in assay [1] (read-out: Wnt IC50) and in assay [2] were 6.08 and 7.48, respectively.

Consider `CN1CCN(Cc2ccc(-c3cc4ccc(F)cc4c(=O)[nH]3)cc2)CC1` [REF-2, reference compound], for which the pIC50 in assay [1] (read-out: Wnt IC50) was 6.00; in assay [2] it was 7.32.

As for `CN1CCN(c2ccc(-c3cc4ccccc4c(=O)[nH]3)cn2)CC1` [REF-3, reference compound], the negative-log IC50 (pIC50) in assay [1] (read-out: Wnt IC50) was 6.13; in assay [2], 7.62.

Regarding `CN(C)Cc1ccc(-c2cc3ccccc3c(=O)[nH]2)cc1` [REF-4, reference compound], the negative logarithm of the IC50 (pIC50) in assay [1] (read-out: Wnt IC50) was less than 5.00.

As for `CN(C)CCOc1ccc(-c2cc3ccccc3c(=O)[nH]2)cc1` [REF-5, reference compound], the pIC50 in assay [1] (read-out: Wnt IC50) is less than 5.00; in assay [2] it was 7.77.

As for `O=C(C1CC1)N1CCN(c2ncc(-c3cc4c(O)cccc4c(=O)[nH]3)cn2)CC1` [REF-6, reference compound], the negative logarithm of the IC50 (pIC50) in assay [1] (read-out: Wnt IC50) was 6.21; in assay [2], 7.62.

Consider `CN1CCN(C(=O)c2ccc(-c3cc4c(O)cccc4c(=O)[nH]3)cn2)CC1` [REF-7, reference compound], for which the pIC50 in assay [1] (read-out: Wnt IC50) is less than 5.00; in assay [2], 7.38.

With `COc1ccc(-c2cc3c(C)cccc3c(=O)[nH]2)nc1` [REF-8, reference compound], the pIC50 in assay [1] (read-out: Wnt IC50) is 5.36; in assay [2], 7.41.
